Where two headings read alike, the source gives them in different places. Positions of bridges follow the written chain, without caps; N, C: chain ends. No end group written: not given here.
How the values were obtained:
[1] = biological target: T1, hASIC1b (Homo sapiens, UniProt P78348); assay: TEVC in Xenopus laevis oocytes expressing hASIC1b; type: cell-based; details: for remaining activity at 1 µM: 1 µM peptide, conditioning pH 7.45, mean, n ≥ 5, read-out: I/Icontrol
T1 construct: expressed in transfected cells; host or cells: Xenopus laevis oocytes (cRNA injection)
T1 sequence (P78348 1-562 isoform P78348-3): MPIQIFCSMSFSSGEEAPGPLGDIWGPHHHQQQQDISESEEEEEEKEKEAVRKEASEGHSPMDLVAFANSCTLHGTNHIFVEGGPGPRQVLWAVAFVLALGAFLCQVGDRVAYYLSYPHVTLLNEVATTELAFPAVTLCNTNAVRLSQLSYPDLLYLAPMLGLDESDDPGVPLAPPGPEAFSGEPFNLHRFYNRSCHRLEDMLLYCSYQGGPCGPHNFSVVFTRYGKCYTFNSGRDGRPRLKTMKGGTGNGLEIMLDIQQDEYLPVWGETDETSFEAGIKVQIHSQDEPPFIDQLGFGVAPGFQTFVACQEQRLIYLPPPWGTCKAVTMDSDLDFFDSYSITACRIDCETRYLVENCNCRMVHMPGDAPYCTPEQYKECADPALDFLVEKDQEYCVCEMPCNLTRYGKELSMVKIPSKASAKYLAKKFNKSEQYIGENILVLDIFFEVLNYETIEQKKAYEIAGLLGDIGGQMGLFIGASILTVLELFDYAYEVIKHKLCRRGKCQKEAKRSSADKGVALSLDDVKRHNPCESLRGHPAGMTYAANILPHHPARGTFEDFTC
Protocol: Two-electrode voltage-clamp (TEVC) experiments using Xenopus laevis oocytes were conducted as previously described. Briefly, oocytes were surgically removed from anaesthetised female frogs, then treated with collagenase (~ 1 mg/ml, Sigma type I) for 2 h under agitation at room temperature. cRNAs were synthesised using a mMessage mMachine T7 or SP6 transcription kit (Thermo Fisher Scientific Australia Pty Ltd, Scoresby, VIC, Australia) and injected into healthy stage V–VI oocytes at 0.2–20 ng per cell. Different amounts of RNA were used for different wild-type and mutant constructs, as well as to titrate expression levels to record over multiple days and maintaining consistent expression levels. Injected oocytes were incubated at 17 °C for 1–7 days in 50% Leibovitz’s L-15 medium (Gibco, Thermo Fisher Scientific Australia Pty Ltd, Scoresby, VIC, Australia), supplemented with 25 µg/mL gentamicin, 25 µg/mL streptomycin, and 2.5% fetal horse serum. Membrane currents were recorded 2–7 days after cRNA-injection under voltage-clamp at -60 mV (Axon Axoclamp 900 A, Molecular Devices, CA, USA) using two standard glass microelectrodes of 0.5–1 MΩ resistance when filled with 3 M KCl solution. Data were sampled at 2 kHz and filtered at 0.1 kHz using Clampex 10 software (Molecular Devices, CA, USA). A microperfusion system was used to allow fast extracellular solution exchange (bath volume = ~ 30 µL). All experiments were performed at room temperature (18–23 °C) in ND96 (96 mM NaCl, 2 mM KCl, 1.8 mM CaCl2, 2 mM MgCl2, 5 mM HEPES, pH 7.45). In solutions below pH 6.8, HEPES was replaced by MES. All solutions containing peptides contained 0.05% fatty acid free bovine serum albumin to decrease adsorptive losses of peptide to plasticware. For all channels tested, control current magnitudes between 500 and 9000 nA when tested using a conditioning pH of 7.45 and stimulating pH of 6 (except for the chimeras that were stimulated with pH 5) were used for data collection. Before recording any experiments, oocytes were stimulated multiple times with low pH to minimise and stabilise tachyphylaxis/desensitisation, which were then accounted for during analysis. Complete recovery of currents from Ma-3 induced modulation within 3 min of washout at all channels tested allowed for correction for tachyphylaxis/desensitisation during analyses.
Specific to this work, the standard protocol was for oocytes to be conditioned at pH 7.45 and channels stimulated every 60 s using a 5 s pH 5 or 6 application, unless stated otherwise. For all concentration-response data, peptides were applied for ~ 50 s between each low pH stimulus application. Activation curves were determined by conditioning oocytes at pH 8 (Fig. 2e − g; and Fig. 5a and b) or 7.45 (Fig. 6; and Supplementary Fig. 2d and c) for 55 s and applying low pH stimuli from 7.25 to 5.0 for 5 s. Steady-state desensitisation (SSD) was determined by applying conditioning solutions of pH values from 8 to 6 for 115 s prior to stimulation by a pH drop to 5 for 5 s. Ma-3 was only applied in the conditioning solution for activation and steady-state desensitisation curves in the presence of peptide. Control pH-dependence curves were determined in the absence of any Ma-3. When assessing the effect of Ma-3 on the rASIC1a: ASIC1b chimeras (C92 and C166; and for the comparative wild-type data), the conditioning pH was 7.45 and stimulating pH 5 (Fig. 3b). Specific details of the conditioning and stimulating pH are noted in each figure legend.
Data were analysed using pCLAMP-Clampfit software (Version 11, Molecular Devices, CA, USA) and GraphPad Prism 9.5 and 10.2.2 (GraphPad Software, San Diego, CA, USA). To obtain the Hill coefficient (nH) and half-maximal response (EC50, IC50, or pH50) the Hill equation was fitted to normalised concentration-response curves by using a non-linear fit to the data of a four-parameter logistic equation (“sigmoidal dose-response” in GraphPad Prism 9.5). […]

[2] = biological target: T2, rASIC1b C208Q/N324K (CN/QK) (Rattus norvegicus, UniProt P55926, C208Q/N291K); assay: TEVC oocytes, rASIC1b double mutant CN/QK; type: cell-based
T2 construct: expressed in transfected cells; host or cells: Xenopus laevis oocytes injected with cRNA
T2 sequence (P55926 1-559 isoform P55926-3 C208Q/N324K): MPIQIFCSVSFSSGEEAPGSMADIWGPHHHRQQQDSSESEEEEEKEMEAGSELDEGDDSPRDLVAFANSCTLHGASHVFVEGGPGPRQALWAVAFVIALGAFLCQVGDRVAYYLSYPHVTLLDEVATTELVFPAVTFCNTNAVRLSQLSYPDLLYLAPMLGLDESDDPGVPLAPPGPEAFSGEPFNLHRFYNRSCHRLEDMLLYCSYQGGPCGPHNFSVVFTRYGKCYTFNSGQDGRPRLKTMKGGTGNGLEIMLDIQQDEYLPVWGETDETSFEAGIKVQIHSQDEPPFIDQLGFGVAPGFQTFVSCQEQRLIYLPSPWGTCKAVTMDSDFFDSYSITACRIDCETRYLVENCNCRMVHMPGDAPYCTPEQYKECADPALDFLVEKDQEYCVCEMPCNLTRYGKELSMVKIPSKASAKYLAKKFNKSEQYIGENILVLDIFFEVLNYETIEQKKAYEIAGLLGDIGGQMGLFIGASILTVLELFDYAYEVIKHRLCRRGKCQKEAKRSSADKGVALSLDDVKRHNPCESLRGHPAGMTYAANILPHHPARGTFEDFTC
Protocol: Two-electrode voltage-clamp (TEVC) experiments using Xenopus laevis oocytes were conducted as previously described. Briefly, oocytes were surgically removed from anaesthetised female frogs, then treated with collagenase (~ 1 mg/ml, Sigma type I) for 2 h under agitation at room temperature. cRNAs were synthesised using a mMessage mMachine T7 or SP6 transcription kit (Thermo Fisher Scientific Australia Pty Ltd, Scoresby, VIC, Australia) and injected into healthy stage V–VI oocytes at 0.2–20 ng per cell. […] Membrane currents were recorded 2–7 days after cRNA-injection under voltage-clamp at -60 mV (Axon Axoclamp 900 A, Molecular Devices, CA, USA) using two standard glass microelectrodes of 0.5–1 MΩ resistance when filled with 3 M KCl solution. […]
Specific to this work, the standard protocol was for oocytes to be conditioned at pH 7.45 and channels stimulated every 60 s using a 5 s pH 5 or 6 application, unless stated otherwise. […] Activation curves were determined by conditioning oocytes at pH 8 (Fig. 2e − g; and Fig. 5a and b) or 7.45 (Fig. 6; and Supplementary Fig. 2d and c) for 55 s and applying low pH stimuli from 7.25 to 5.0 for 5 s. Steady-state desensitisation (SSD) was determined by applying conditioning solutions of pH values from 8 to 6 for 115 s prior to stimulation by a pH drop to 5 for 5 s. […] Control pH-dependence curves were determined in the absence of any Ma-3. […]

[3] = 300 nM Ma-3, conditioning pH 7.45, Hill fit, n = 5–6

Row | Substance | remaining activity at 1 µM ([1]; pH 5 evoked currents) [%] | remaining activity at 1 µM ([1]; pH 6 evoked currents) [%] | pH50 of activation in presence of Ma-3 [1, 3] | difference in potency between pH 5 and pH 6 stimulus conditions ([1]; potentiation at pH 6 vs inhibition at pH 5, conditioning pH 7.45) | pH50 of activation in presence of Ma-3 [2, 3] | Hill slope (95% CI) ([2]; conditioning pH 7.45, pH 6 evoked currents, potentiation, 95% CI)
1 | H-SLKCYQHGAVVTCHRDMKFCYHNIGMPFRNLKLILQGCSSSCSETENNKCCSTDRCNK (disulfide 4-20, 13-38, 42-50, 51-56 (inferred)) [K8A] | 75 | 165 |  |  |  | 
2 | H-SLKCYQHGKVVTCHRDAKFCYHNIGMPFRNLKLILQGCSSSCSETENNKCCSTDRCNK (disulfide 4-20, 13-38, 42-50, 51-56 (inferred)) [M16A] | 80 | 188 |  |  |  | 
3 | H-SLKCYQHGKVVTCHRDMKFCYHNIGMPFRNLKLILQGCSSSCSETENNKCCSTDRCNK (disulfide 4-20, 13-38, 42-50, 51-56 (inferred)) [Ma-3, mambalgin-3] | 69 | 161 | 6.20 | ~ 10 fold | 6.29 | 0.69–2.48

From PMC11335189, “Revealing molecular determinants governing mambalgin-3 pharmacology at acid-sensing ion channel 1 variants” (Cellular and Molecular Life Sciences: CMLS, 2024)
